{"source": "patent US10058549B2", "about": "“Imidazo[1,2-α]pyridine derivatives as modulators of the 5-HT2A serotonin receptor useful for the treatment of disorders related thereto” (Arena Pharmaceuticals, Inc., priority 2007, dated 2018)", "key": {"normal volunteers": {"test_system": "normal volunteers", "assay": "Afternoon nap model of insomnia in normal volunteers", "type": "in vivo, human"}, "healthy adults": {"test_system": "healthy adults", "assay": "Phase 1 trials, waking EEG", "type": "in vivo, human"}, "diabetic rats": {"test_system": "diabetic rats", "conditions": "19.8% deficit in diabetic rats; cited from earlier work"}, "[1]": {"test_system": "DOI-induced hypolocomotion in rats", "assay": "Attenuation of DOI-induced hypolocomotion in rats", "type": "in vivo, rat", "conditions": "compound 1-10 mg/kg p.o., DOI 1 mg/kg s.c.", "experimental": "In this example, compounds of the invention were tested for inverse agonist activity by determining whether these compounds could attenuate DOI-induced hypolocomotion in rats in a novel environment. DOI is a potent 5-HT2A/2C receptor agonist that crosses the blood-brain barrier. The standard protocol used is described briefly below.\nMale Sprague-Dawley rats weighing between 200-350 g were used for all tests. Rats were housed three to four per cage.\n(R)-DOI HCl (C11H16INO2.HCl) was obtained from Sigma-Aldrich and was dissolved in 0.9% saline. Compounds of the invention were synthesized at Arena Pharmaceuticals Inc., San Diego, Calif. and were dissolved in 100% PEG400. DOI was injected s.c. in a volume of 1 mL/kg, while compounds of the invention were administered p.o. in a volume of 1 mL/kg.\nThe “Motor Monitor” (Hamilton-Kinder, Poway, Calif.) was used for all activity measurement. This apparatus recorded rears using infrared photobeams. […]\nIn determining the effects of compounds of the invention on DOI-induced hypoactivity, animals were first injected with vehicle or the compound of the invention (1-10 mg/kg) in their home cages. […] Ten minutes after DOI administration, animals were placed into the activity apparatus and rearing activity was measured for 10 min.\nResults (total rears over 10 min) were analyzed by t-test. […]"}, "JC virus": {"test_system": "JC virus", "conditions": "human glial cells; cited from earlier work"}, "heatstroke": {"test_system": "heatstroke", "conditions": "during heatstroke; cited from earlier work"}, "[2]": {"test_system": "diabetic nephropathy patients", "conditions": "24 months of treatment; cited from earlier work"}, "humans": {"test_system": "humans", "conditions": "lumbar disc herniation; cited from earlier work"}, "[3]": {"test_system": "thermal induced pain in rats", "conditions": "intraperitoneal administration; cited from earlier work"}, "[4]": {"test_system": "inflammatory pain in rats", "conditions": "intrathecal or intraperitoneal administration; cited from earlier work"}}, "data": [{"smiles": "COc1ccc(NC(=O)Nc2ccc(F)cc2F)cc1-c1c(Br)cnn1C", "note": "[APD125]", "values": [{"measurement": "microarousals, number of sleep stage shifts and number of awakenings after sleep onset", "setting": "normal volunteers; human, in vivo", "value": "decreased"}, {"measurement": "sleep onset latency", "setting": "normal volunteers; human, in vivo", "value": "not decreased"}, {"measurement": "slow wave sleep and associated parameters", "setting": "normal volunteers; primarily during the early part of sleep", "value": "increased slow wave sleep and associated parameters in a dose-dependent manner"}, {"measurement": "effect on waking EEG", "setting": "healthy adults", "value": "vigilance-lowering effects"}, {"measurement": "dose of maximal vigilance-lowering effects", "setting": "healthy adults; waking EEG", "value": "40 to 80", "unit": "mg"}, {"measurement": "time of peak effects after dosing", "setting": "healthy adults; waking EEG", "value": "2 to 4", "unit": "h"}]}, {"smiles": "O=CN1CCC(C(=O)NCCN2CCC(=C3c4ccccc4C=Cc4ccccc43)CC2)CC1", "note": "[AT-1015]", "values": [{"measurement": "correction of sciatic motor conduction deficit", "setting": "diabetic rats", "value": "82.6-99.7%"}]}, {"smiles": "O=C(c1cccn2ccnc12)N1CCN(CCc2ccccc2F)CC1", "note": "[Compound 18, (4-(2-Fluorophenethyl)piperazin-1-yl)(imidazo[1,2-a]pyridin-8-yl)methanone]", "values": [{"measurement": "attenuation of DOI-induced hypolocomotion (total rears over 10 min)", "setting": "[1]", "value": "attenuated DOI-induced hypolocomotion"}]}, {"smiles": "O=C(c1cccn2ccnc12)N1CCN(CCc2ccc(Cl)cc2Cl)CC1", "note": "[Compound 19, (4-(2,4-Dichlorophenethyl)piperazin-1-yl)(imidazo[1,2-a]pyridin-8-yl)methanone]", "values": [{"measurement": "attenuation of DOI-induced hypolocomotion (total rears over 10 min)", "setting": "[1]", "value": "attenuated DOI-induced hypolocomotion"}]}, {"smiles": "O=C(c1ccc(F)cc1)C1CCN(CCn2c(=O)[nH]c3ccccc3c2=O)CC1", "note": "[ketanserin]", "values": [{"measurement": "JC virus infection", "setting": "JC virus", "value": "inhibited"}, {"measurement": "protection against circulatory shocks, intracranial hypertension and cerebral ischemia", "setting": "heatstroke", "value": "protect against circulatory shocks, intracranial hypertension and cerebral ischemia"}]}, {"smiles": "Cc1nc2sccn2c(=O)c1CCN1CCC(=C(c2ccc(F)cc2)c2ccc(F)cc2)CC1", "note": "[ritanserin]", "values": [{"measurement": "JC virus infection", "setting": "JC virus", "value": "inhibited"}, {"measurement": "correction of sciatic motor conduction deficit", "setting": "diabetic rats", "value": "82.6-99.7%"}]}, {"smiles": "COc1cccc(CCc2ccccc2OCC(CN(C)C)OC(=O)CCC(=O)O)c1", "note": "(stereo not drawn) [sarpogrelate]", "values": [{"measurement": "urinary albumin excretion level", "setting": "[2]", "value": "significantly reduced"}, {"measurement": "treatment of lower back pain, leg pain and numbness associated with sciatica", "setting": "humans", "value": "effective treatment"}, {"measurement": "analgesic effect on thermal induced pain", "setting": "[3]", "value": "significant analgesic effect"}, {"measurement": "analgesic effect on inflammatory pain", "setting": "[4]", "value": "significant analgesic effect"}, {"measurement": "correction of sciatic motor conduction deficit", "setting": "diabetic rats", "value": "82.6-99.7%"}]}]}
